Where two headings read alike, the source gives them in different places. Where a SMILES comes first, the peptide text is derived from it. The star is where a group is joined. X1 = CC(=NO)C(C)(C)NCC(C)(CNC(C)(C)C(C)=NO)CN*; Cbz = O=C(OCc1ccccc1)*
Experiments:
[1] = target: T1, fibrin (in vitro human plasma clot) (Homo sapiens, UniProt P02671+P02675+P02679); assay: Incorporation into human plasma clots in vitro; format: biochemical; conditions: for % specific uptake: % retained (with thrombin) - % retained (no thrombin); for % retained (no thrombin): control without thrombin and calcium chloride (non-specific binding); for % retained (with thrombin): human plasma clot, 60 minutes, ca. 20° C.
T1 construct: about 400 μl of human plasma containing the radiolabelled substrate; from tissue; host or cells: human plasma, clotted in vitro with added thrombin and calcium chloride
T1 sequence (P02671 20-644 isoform P02671-2 limits assumed): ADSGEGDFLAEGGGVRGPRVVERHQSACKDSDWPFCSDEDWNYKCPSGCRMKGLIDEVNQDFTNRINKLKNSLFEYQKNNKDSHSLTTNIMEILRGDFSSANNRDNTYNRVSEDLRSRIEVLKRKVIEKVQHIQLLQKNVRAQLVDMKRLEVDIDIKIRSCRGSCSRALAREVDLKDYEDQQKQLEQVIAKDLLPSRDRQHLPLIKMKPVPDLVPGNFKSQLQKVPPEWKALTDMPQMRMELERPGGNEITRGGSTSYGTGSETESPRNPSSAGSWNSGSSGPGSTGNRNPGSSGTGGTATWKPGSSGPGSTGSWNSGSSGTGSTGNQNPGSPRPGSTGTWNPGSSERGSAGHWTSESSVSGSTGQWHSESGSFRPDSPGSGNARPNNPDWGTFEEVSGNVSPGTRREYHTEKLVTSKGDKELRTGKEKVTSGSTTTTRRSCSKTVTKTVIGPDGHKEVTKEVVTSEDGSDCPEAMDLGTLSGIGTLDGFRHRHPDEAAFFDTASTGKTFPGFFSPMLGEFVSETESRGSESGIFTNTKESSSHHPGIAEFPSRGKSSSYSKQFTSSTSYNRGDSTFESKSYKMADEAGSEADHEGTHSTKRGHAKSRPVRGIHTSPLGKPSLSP
T1 sequence (P02675 45-491 limits assumed): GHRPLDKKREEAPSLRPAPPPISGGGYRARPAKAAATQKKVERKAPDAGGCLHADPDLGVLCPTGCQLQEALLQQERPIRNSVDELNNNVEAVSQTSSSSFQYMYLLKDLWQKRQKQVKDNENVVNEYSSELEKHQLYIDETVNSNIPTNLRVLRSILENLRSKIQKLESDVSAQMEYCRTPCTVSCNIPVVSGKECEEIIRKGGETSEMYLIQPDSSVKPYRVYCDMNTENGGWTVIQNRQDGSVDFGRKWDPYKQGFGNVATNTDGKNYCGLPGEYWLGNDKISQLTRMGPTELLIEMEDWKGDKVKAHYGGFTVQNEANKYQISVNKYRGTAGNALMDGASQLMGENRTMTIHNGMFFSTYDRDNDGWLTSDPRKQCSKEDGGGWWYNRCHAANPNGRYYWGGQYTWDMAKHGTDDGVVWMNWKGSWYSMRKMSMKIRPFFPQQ
T1 sequence (P02679 27-437 isoform P02679-2 limits assumed): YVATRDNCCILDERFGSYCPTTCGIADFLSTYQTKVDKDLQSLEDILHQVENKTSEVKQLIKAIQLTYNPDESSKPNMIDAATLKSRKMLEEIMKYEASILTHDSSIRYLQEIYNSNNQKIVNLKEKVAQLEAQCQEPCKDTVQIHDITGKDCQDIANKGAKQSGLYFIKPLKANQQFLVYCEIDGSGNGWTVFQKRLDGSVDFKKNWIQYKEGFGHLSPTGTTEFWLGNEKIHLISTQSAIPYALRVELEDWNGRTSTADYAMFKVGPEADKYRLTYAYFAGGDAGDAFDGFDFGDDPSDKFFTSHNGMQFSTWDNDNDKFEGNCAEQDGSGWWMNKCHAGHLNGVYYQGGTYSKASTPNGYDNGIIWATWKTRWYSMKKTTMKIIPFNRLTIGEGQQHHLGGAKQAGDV
Method in brief: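 Fibrin incorporation is expressed as the fraction of total radioactivity retained with filtered clots, corrected for non-specific binding in controls lacking thrombin and calcium chloride. Clotting was induced by thrombin in Ca2+-containing Tris-buffered saline (pH 7.5) with human plasma carrying about 10 kBq/ml tracer, for 60 min at ambient temperature before EDTA quench.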

[2] = Incorporation into clots induced in a rat model (rat inferior vena cava model); format: in vivo, rat (Male Wistar); conditions: for % id/g (clot) / Rel. Conc. (cpm/g of clot by dose/g animal): sacrificed after 60 min
Method in brief: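 Male Wistar rats (250–350 g) under 15% urethane anaesthesia, with the vena cava isolated by laparotomy. Compounds given 5 min (fresh clot) or 60 min (aged clot) after clot induction; clot, blood, lung and heart removed 60 min later, weighed and counted. Uptake expressed as cpm/g clot per dose/g animal and as clot-to-background tissue ratio.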

[3] = In vitro plasma stability (rat plasma)
Experimental: (§1) To a portion of compound (50 μl, 10 MBq/ml) was added an equal volume of plasma (rat or human) or saline. The mixtures were incubated at 37° C. and the stability measured by HPLC (system C) at 0, 30 and 120 minutes. The saline dilution acted as a control.

[4] = In vitro plasma stability (human plasma)
Experimental: as §1

[5] = design: species or system rat (Male Wistar); conditions: rat, in vivo; for % ID Blood / % ID GI Tract / % ID Heart / % ID Kidney / % ID Liver / % ID Lung / % ID Muscle / % ID Urine: iv
Experimental: The resolution of a clot image is dependant on the combination of rate of incorporation of the radiopharmaceutical and its blood/tissues clearance rate. For this reason the biodistribution of several compounds has been determined in rats. Male Wistar (100–150 g) rats were injected i.v. with 0.1–0.2 ml of radiolabelled tracer solution (8 MBq/ml) and dissected at different times post-injection. The % ID in each of the selected tissues was measured. Some animals were kept in metabolism cages to be able to determine the % ID excreted in urine and faeces. The dissection times used for the agent were 15, 30, 60, 240 min. Data are shown as mean of % ID (n=3).

[6] = human, plasma, 2 h
Experimental: as §1

[7] = rat, plasma, 2 h
Experimental: as §1

[8] = Imaging of clots induced in a rat model (jugular vein); format: in vivo, rat (male Wistar); conditions: planar gamma camera images 15–180 min p.i.
Experimental: Clots were induced in male Wistar rats (250–350 g) as described in Example 17, with the exception that for these experiments the platinum wire was located in the jugular vein. The compounds were injected 60 min […] and planar images acquired between 15–180 min p.i. A Park medical Isocam I gamma camera was used for these experiments, 300K or 150K counts were of the thorax were collected using a LEUHR or a LEPH collimator. Clots were visualised from 15 min p.i.

[9] = ^125I radiolabelled; cited from earlier work
[10] = Aged Clots: injected 60 min post-induction
[11] = Fresh Clots: injected 5 min post-induction

Compound: CC(=NO)C(C)(C)NCC(C)(CNC(=O)CNC(=O)[C@H](CCCCN)NC(=O)[C@H](CC(C)C)NC(=O)[C@H](CC(C)C)NC(=O)[C@@H](NC(=O)[C@H](Cc1ccc(O)cc1)NC(=O)[C@@H]1CCCN1C(=O)[C@H](CO)NC(=O)[C@@H](NC(=O)[C@H](CCC(N)=O)NC(=O)[C@H](CCC(=O)O)NC(=O)[C@H](CCC(N)=O)NC(=O)[C@H](CC(N)=O)NC(=O)OCc1ccccc1)C(C)C)[C@@H](C)O)CNC(C)(C)C(C)=NO (some centres unmarked) [^99mTc-Cmpd 7, metal not drawn] (Cbz-NQEQVSPYTLLKG-X1; C-terminus assumed)
- % specific uptake [1]: 40.6%
- % retained (no thrombin) [1]: 0.7%
- % retained (with thrombin) [1]: 41.3%
- Clot/blood ([2]; Aged Clots): 9
- Clot/heart ([2]; Aged Clots): 15
- Clot/liver ([2]; Aged Clots): 3
- Clot/lung ([2]; Aged Clots): 7
- % id/g (clot) [2, 10]: 2.1 ± 0.3 % id/g
- Rel. Conc. (cpm/g of clot by dose/g animal) [2, 10]: 6.5 ± 1.3
- Clot/blood ([2]; Fresh Clots): 15
- Clot/heart ([2]; Fresh Clots): 21
- Clot/liver ([2]; Fresh Clots): 6
- Clot/lung ([2]; Fresh Clots): 11
- % id/g (clot) [2, 11]: 4.8 ± 1.3 % id/g
- Rel. Conc. (cpm/g of clot by dose/g animal) [2, 11]: 14.5 ± 4.4
- remaining at 2 h [3]: > 90%
- remaining at 2 h [4]: > 90%

Compound: Ac-NQEQVSPYTLLKG-Pn44 (also: 99mTc complex) [^99mTc-Cmpd 3]
- % specific uptake [1]: 39.0%
- % retained (no thrombin) [1]: 0.3%
- % retained (with thrombin) [1]: 39.3%
- t1/2 (blood clearance, biological half life) [5]: 2 h
- % ID Blood ([5]; 0.25 h): 5.3 % ID
- % ID GI Tract ([5]; 0.25 h): 13.5 % ID
- % ID Heart ([5]; 0.25 h): 0.2 % ID
- % ID Kidney ([5]; 0.25 h): 7.6 % ID
- % ID Liver ([5]; 0.25 h): 6.2 % ID
- % ID Lung ([5]; 0.25 h): 0.7 % ID
- % ID Muscle ([5]; 0.25 h): 14.7 % ID
- % ID Urine ([5]; 0.25 h): 14.9 % ID
- % ID Blood ([5]; 0.5 h): 1.8 % ID
- % ID GI Tract ([5]; 0.5 h): 15.1 % ID
- % ID Heart ([5]; 0.5 h): 0.1 % ID
- % ID Kidney ([5]; 0.5 h): 4.9 % ID
- % ID Liver ([5]; 0.5 h): 4.1 % ID
- % ID Lung ([5]; 0.5 h): 0.4 % ID
- % ID Muscle ([5]; 0.5 h): 10.4 % ID
- % ID Urine ([5]; 0.5 h): 34.3 % ID
- % ID Blood ([5]; 1 h): 1.6 % ID
- % ID GI Tract ([5]; 1 h): 18.0 % ID
- % ID Heart ([5]; 1 h): 0.1 % ID
- % ID Kidney ([5]; 1 h): 4.6 % ID
- % ID Liver ([5]; 1 h): 4.0 % ID
- % ID Lung ([5]; 1 h): 0.3 % ID
- % ID Muscle ([5]; 1 h): 5.1 % ID
- % ID Urine ([5]; 1 h): 37.0 % ID
- % ID Blood ([5]; 4 h): 0.6 % ID
- % ID GI Tract ([5]; 4 h): 20.7 % ID
- % ID Heart ([5]; 4 h): 0.04 % ID
- % ID Kidney ([5]; 4 h): 3.4 % ID
- % ID Liver ([5]; 4 h): 3.0 % ID
- % ID Lung ([5]; 4 h): 0.3 % ID
- % ID Muscle ([5]; 4 h): 2.9 % ID
- % ID Urine ([5]; 4 h): 42.0 % ID
- Clot/blood ([2]; Aged Clots): 8
- Clot/heart ([2]; Aged Clots): 23
- Clot/liver ([2]; Aged Clots): 5
- Clot/lung ([2]; Aged Clots): 11
- % id/g (clot) [2, 10]: 2.1 ± 0.8 % id/g
- Rel. Conc. (cpm/g of clot by dose/g animal) [2, 10]: 6.2 ± 2.2
- Clot/blood ([2]; Fresh Clots): 10
- Clot/heart ([2]; Fresh Clots): 17
- Clot/liver ([2]; Fresh Clots): 6
- Clot/lung ([2]; Fresh Clots): 8
- % id/g (clot) [2, 11]: 1.4 ± 0.4 % id/g
- Rel. Conc. (cpm/g of clot by dose/g animal) [2, 11]: 5.1 ± 1.2
- % intact at 120 mins [6]: >90%
- % intact at 120 mins [7]: >90%

Compound: Ac-NQEQVSPYTLLKG-Pn216 (also: 99mTc complex) [^99mTc-Cmpd 5]
- % specific uptake [1]: 35.3%
- % retained (no thrombin) [1]: 0.2%
- % retained (with thrombin) [1]: 35.5%
- Clot/blood ([2]; Aged Clots): 13
- Clot/heart ([2]; Aged Clots): 33
- Clot/liver ([2]; Aged Clots): 24
- Clot/lung ([2]; Aged Clots): 31
- % id/g (clot) [2, 10]: 3.6 ± 1.7 % id/g
- Rel. Conc. (cpm/g of clot by dose/g animal) [2, 10]: 11 ± 5.1
- Clot/blood ([2]; Fresh Clots): 21
- Clot/heart ([2]; Fresh Clots): 51
- Clot/liver ([2]; Fresh Clots): 43
- Clot/lung ([2]; Fresh Clots): 23
- % id/g (clot) [2, 11]: 6.0 ± 2.1 % id/g
- Rel. Conc. (cpm/g of clot by dose/g animal) [2, 11]: 16 ± 5.8
- suitability for imaging clots (in words) [8]: suitable for imaging clots
- % intact at 120 mins [6]: >90%
- % intact at 120 mins [7]: >90%

Compound: NQEQVSPYTLTLLK [synthetic analogue of the alpha-2 antiplasmin N-terminal peptide, WO 89/00051]
- uptake in thrombin clots in vitro (in words) [9]: taken up in thrombin clots in vitro

— patent publication US7049289B1, “Labelled glutamine and lysine analogues” (Amersham PLC, priority 1998, dated 2006)
